Patent publication US20240180880A1, “METHODS OF USING EHMT2 INHIBITORS IN TREATING OR PREVENTING BLOOD DISORDERS” (Epizyme, Inc., priority 2017, published 2024)
Where two headings read alike, the source gives them in different places.

System: 284 cell lines
Experiment: cells
Settings: Homo sapiens
Method: A screen of 284 cell lines to assess the antiproliferative effect of EHMT2 inhibition was conducted by treating cell lines in 384-well format with a half-log step dilutions of Compound 205 over 10 concentrations with a maximum concentration of 0.1% v/v DMSO. Cells were plated on Day 0 and treated with compound on Day 1. Culture medium was replaced on day 7 and cells redosed. After 10-day incubation, cells were fixed and stained with nuclear dye. Automated fluorescence microscopy was carried out using a Molecular Devices ImageXpress Micro XL high-content imager, and images were collected with a 4× objective. 16-bit TIFF images were acquired and analyzed with MetaXpress 5.1.0.41 software. Cell proliferation was measured by the fluorescence intensity of the incorporated nuclear dye. Cell count IC50 is the test compound concentration at 50% of maximal response of the untreated control.

Which IC50 (DU-145, read-out: Cell Count IC50, DU145, Prostate) does the source give for CNc1cc(C)nc(Nc2ccc(OC)c(OCCCN3CCCC3)c2)n1 [Compound 205] here?
The IC50 was > 10 µM.

What about the IC50 (Daoy, read-out: Cell Count IC50, Daoy, Central Nervous System, Medulloblastoma) of the same compound?
The IC50 was 1 to 10 µM.

And the IC50 (Daudi, read-out: Cell Count IC50, Daudi, Hematopoietic, Lymphoma)?
The IC50 was 1 to 10 µM.

What about the IC50 (Detroit 562, read-out: Cell Count IC50, Detroit 562, Head and Neck) of the same compound?
Its IC50 is 1 to 10 µM.

And the IC50 (DoTc2-4510, read-out: Cell Count IC50, DoTc2 4510, Female GU, Cervix)?
Its IC50 is 1 to 10 µM.

What about the IC50 (EFM-19, read-out: Cell Count IC50, EFM-19, Breast) of the same compound?
Its IC50 is > 10 µM.

What about the IC50 (FaDu, read-out: Cell Count IC50, FaDu, Head and Neck) of the same compound?
Its IC50 is 1 to 10 µM.

What about the IC50 (G292, read-out: Cell Count IC50, G-292, clone A141B1, Bone, Osteosarcoma) of the same compound?
The IC50 was > 10 µM.

What about the IC50 (G-361, read-out: Cell Count IC50, G-361, Skin, Melanoma) of the same compound?
The IC50 was 1 to 10 µM.

What about the IC50 (G-401, read-out: Cell Count IC50, G-401, Kidney) of the same compound?
Its IC50 is > 10 µM.

And the IC50 (G-402, read-out: Cell Count IC50, G-402, Kidney)?
The IC50 was 1 to 10 µM.

And the IC50 (HCT-8, read-out: Cell Count IC50, HCT-8, Colon)?
Its IC50 is > 10 µM.

What about the IC50 (HCT-15, read-out: Cell Count IC50, HCT-15, Colon) of the same compound?
Its IC50 is > 10 µM.

What about the IC50 (HCT-116, read-out: Cell Count IC50, HCT-116, Colon) of the same compound?
Its IC50 is > 10 µM.

And the IC50 (HEC-1-A, read-out: Cell Count IC50, HEC-1-A, Female GU, Uterus)?
Its IC50 is 1 to 10 µM.

What about the IC50 (HEL 92.1.7, read-out: Cell Count IC50, HEL-92-1-7, Hematopoietic, Leukemia) of the same compound?
Its IC50 is > 10 µM.

What about the IC50 (HMCB, read-out: Cell Count IC50, HMCB, Skin, Melanoma) of the same compound?
Its IC50 is > 10 µM.

And the IC50 (HPAF-II, read-out: Cell Count IC50, HPAF-II, Pancreas)?
Its IC50 is 1 to 10 µM.

And the IC50 (HT1197, read-out: Cell Count IC50, HT-1197, Bladder)?
Its IC50 is 1 to 10 µM.

What about the IC50 (HT-29, read-out: Cell Count IC50, HT-29, Colon) of the same compound?
The IC50 was 1 to 10 µM.

And the IC50 (HT-1080, read-out: Cell Count IC50, HT-1080, Soft & Connective Tissue, Sarcoma)?
The IC50 was > 10 µM.

What about the IC50 (HT-1376, read-out: Cell Count IC50, HT1376, Bladder) of the same compound?
The IC50 was > 10 µM.

And the IC50 (HeLa, read-out: Cell Count IC50, HeLa, Female GU, Cervix)?
Its IC50 is > 10 µM.

And the IC50 (HepG2, read-out: Cell Count IC50, HepG2, Liver)?
The IC50 was > 10 µM.

And the IC50 (Hs 294T, read-out: Cell Count IC50, Hs 294T, Skin, Melanoma)?
The IC50 was 1 to 10 µM.

What about the IC50 (Hs 683, read-out: Cell Count IC50, Hs 683, Central Nervous System, Glioma) of the same compound?
The IC50 was 1 to 10 µM.

What about the IC50 (Hs 695T, read-out: Cell Count IC50, Hs 695T, Skin, Melanoma) of the same compound?
Its IC50 is 1 to 10 µM.

What about the IC50 (Hs746T, read-out: Cell Count IC50, HS 746T, Stomach) of the same compound?
The IC50 was > 10 µM.

What about the IC50 (Hs-578T, read-out: Cell Count IC50, Hs 578T, Breast) of the same compound?
Its IC50 is > 10 µM.

What about the IC50 (HuCCT-1, read-out: Cell Count IC50, HuCCT1, Liver) of the same compound?
The IC50 was 1 to 10 µM.

And the IC50 (HuP-T4, read-out: Cell Count IC50, HuP-T4, Pancreas)?
Its IC50 is 1 to 10 µM.

What about the IC50 (HuTu80, read-out: Cell Count IC50, HuTu 80, Duodenum) of the same compound?
Its IC50 is 1 to 10 µM.

And the IC50 (JEG-3, read-out: Cell Count IC50, JEG-3, Placenta)?
The IC50 was > 10 µM.

What about the IC50 (JIYOYE, read-out: Cell Count IC50, Jiyoye, Hematopoietic, Lymphoma) of the same compound?
The IC50 was > 10 µM.

And the IC50 (JeKo-1, read-out: Cell Count IC50, JeKo-1, Hematopoietic, Lymphoma)?
Its IC50 is 1 to 10 µM.

What about the IC50 (Jurkat, read-out: Cell Count IC50, Jurkat, Hematopoietic, Leukemia) of the same compound?
The IC50 was 1 to 10 µM.

What about the IC50 (K562, read-out: Cell Count IC50, K562, Hematopoietic, Leukemia) of the same compound?
The IC50 was 1 to 10 µM.

What about the IC50 (KATO III, read-out: Cell Count IC50, KATO III, Stomach) of the same compound?
The IC50 was 1 to 10 µM.

And the IC50 (KU812, read-out: Cell Count IC50, KU812, Hematopoietic, Leukemia)?
The IC50 was > 10 µM.

What about the IC50 (LNCaP, read-out: Cell Count IC50, LNCaP, Prostate) of the same compound?
The IC50 was 0.1 to 1 µM.

What about the IC50 (LS174T, read-out: Cell Count IC50, LS-174T, Colon) of the same compound?
Its IC50 is 1 to 10 µM.

What about the IC50 (LS-123, read-out: Cell Count IC50, LS123, Colon) of the same compound?
Its IC50 is 1 to 10 µM.

What about the IC50 (LS-411N, read-out: Cell Count IC50, LS411N, Colon) of the same compound?
The IC50 was 1 to 10 µM.

And the IC50 (LS-513, read-out: Cell Count IC50, LS513, Colon)?
The IC50 was 1 to 10 µM.

What about the IC50 (LS-1034, read-out: Cell Count IC50, LS1034, Colon) of the same compound?
Its IC50 is > 10 µM.

What about the IC50 (M059J, read-out: Cell Count IC50, M059J, Central Nervous System, Glioma) of the same compound?
Its IC50 is > 10 µM.

And the IC50 (MC-IXC, read-out: Cell Count IC50, MC-IXC, Central Nervous System, Neuroblastoma)?
Its IC50 is > 10 µM.

And the IC50 (MCF7, read-out: Cell Count IC50, MCF7, Breast)?
The IC50 was > 10 µM.

And the IC50 (MDA-MB-231, read-out: Cell Count IC50, MDA MB 231, Breast)?
The IC50 was 1 to 10 µM.

And the IC50 (MDA-MB-415, read-out: Cell Count IC50, MDA-MB-415, Breast)?
Its IC50 is > 10 µM.

And the IC50 (MDA-MB-436, read-out: Cell Count IC50, MDA-MB-436, Breast)?
Its IC50 is > 10 µM.

What about the IC50 (MDA-MB-453, read-out: Cell Count IC50, MDA MB 453, Breast) of the same compound?
The IC50 was 1 to 10 µM.

And the IC50 (MDA-MB-468, read-out: Cell Count IC50, MDA MB 468, Breast)?
Its IC50 is 1 to 10 µM.

What about the IC50 (ME-180, read-out: Cell Count IC50, ME-180, Female GU, Cervix) of the same compound?
The IC50 was > 10 µM.

And the IC50 (MEG-01, read-out: Cell Count IC50, MEG01, Hematopoietic, Leukemia)?
Its IC50 is 1 to 10 µM.

And the IC50 (MES-SA, read-out: Cell Count IC50, MES-SA, Soft & Connective Tissue, Sarcoma)?
The IC50 was 1 to 10 µM.

And the IC50 (MG-63, read-out: Cell Count IC50, MG-63, Bone, Osteosarcoma)?
The IC50 was 1 to 10 µM.

And the IC50 (MHH-PREB-1, read-out: Cell Count IC50, MHH-PREB-1, Hematopoietic, Leukemia)?
The IC50 was 1 to 10 µM.

What about the IC50 (MIA PaCa-2, read-out: Cell Count IC50, Mia PaCa-2, Pancreas) of the same compound?
The IC50 was 1 to 10 µM.

What about the IC50 (MOLT-3, read-out: Cell Count IC50, MOLT-3, Hematopoietic, Leukemia) of the same compound?
Its IC50 is 1 to 10 µM.

And the IC50 (MOLT-16, read-out: Cell Count IC50, MOLT-16, Hematopoietic, Leukemia)?
The IC50 was 1 to 10 µM.

What about the IC50 (MV4-11, read-out: Cell Count IC50, MV-4-11, Hematopoietic, Leukemia) of the same compound?
Its IC50 is 0.1 to 1 µM.

And the IC50 (Malme-3M, read-out: Cell Count IC50, MALME3M, Skin, Melanoma)?
The IC50 was > 10 µM.

And the IC50 (MeWo, read-out: Cell Count IC50, MeWo, Skin, Melanoma)?
The IC50 was 1 to 10 µM.

And the IC50 (NALM-6, read-out: Cell Count IC50, NALM-6, Hematopoietic, Leukemia)?
Its IC50 is 1 to 10 µM.

What about the IC50 (NCI-H69, read-out: Cell Count IC50, NCI-H69, Lung, SCLC) of the same compound?
Its IC50 is 0.1 to 1 µM.

What about the IC50 (NCI-H292, read-out: Cell Count IC50, NCI-H292, Lung, NSCLC) of the same compound?
Its IC50 is > 10 µM.

What about the IC50 (NCI-H295R, read-out: Cell Count IC50, NCI-H295R, Endocrine, Adrenal gland) of the same compound?
Its IC50 is > 10 µM.

What about the IC50 (NCI-H441, read-out: Cell Count IC50, NCIH441, Lung, NSCLC) of the same compound?
Its IC50 is > 10 µM.

What about the IC50 (NCI-H446, read-out: Cell Count IC50, NCIH446, Lung, SCLC) of the same compound?
The IC50 was 1 to 10 µM.

And the IC50 (NCI-H460, read-out: Cell Count IC50, NCI-H460, Lung, NSCLC)?
The IC50 was > 10 µM.
